The target of data set [1] is T1, human M1 receptor (Homo sapiens, UniProt P11229).
T1 construct: expressed in transfected cells
T1 sequence (P11229 1-460): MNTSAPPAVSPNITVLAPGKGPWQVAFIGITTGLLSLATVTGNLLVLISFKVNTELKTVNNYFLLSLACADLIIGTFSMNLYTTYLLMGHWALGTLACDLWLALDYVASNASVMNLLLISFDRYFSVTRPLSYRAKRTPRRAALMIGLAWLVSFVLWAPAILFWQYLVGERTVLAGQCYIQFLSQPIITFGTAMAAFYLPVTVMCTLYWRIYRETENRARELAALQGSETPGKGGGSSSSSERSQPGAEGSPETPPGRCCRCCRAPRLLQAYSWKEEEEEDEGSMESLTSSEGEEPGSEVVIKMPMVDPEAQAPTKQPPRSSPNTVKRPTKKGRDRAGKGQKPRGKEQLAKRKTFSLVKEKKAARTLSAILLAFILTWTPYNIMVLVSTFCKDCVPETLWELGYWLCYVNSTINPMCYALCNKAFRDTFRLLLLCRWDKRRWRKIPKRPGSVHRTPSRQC
The data set is described as follows: Label-free dynamic mass redistribution in CHO cells overexpressing human M1-receptor. It counts as cell-based.

The target of data set [2] is T1, human M1 receptor. Briefly: Inositol phosphate (IP1) accumulation in CHO Flp-In cells. The data set is classed as cell-based.
Data set [3] deals with T2, rat M1-receptor (Rattus norvegicus, UniProt P08482).
T2 construct: expressed in transfected cells; host or cells: not described
Briefly: Recombinant rat M1-receptor functional assay. The data set is classed as cell-based.

Data set [4] concerns the target T3, M3-receptor (Homo sapiens, UniProt P20309).
T3 construct: expressed in transfected cells
The data set is described as follows: [3H]-NMS equilibrium radioligand binding, M3. On the procedure: Non-specific binding (NSB) was determined in the presence of 1 μM atropine). Reactions were terminated by rapid filtration onto GF/B filter paper (Whatman, Maidstone, UK) and three washes with 3 mL ice-cold 0.9% NaCl using a Brandel harvester (M-24TI; Brandel, Fort Lauderdale, FL). Membrane bound radioactivity was determined by liquid scintillation (Ultima Gold; PerkinElmer) counting.
Data was analyzed using PRISM (GraphPad). For saturation binding, non-specific and total binding data were analyzed to a one site binding model. DPM was converted to fmol/mg to compare across constructs. […] […] The Cheng Prusoff equation was used to estimate pKi ([Cheng and Prusoff, 1973]).

Data set [5] has as its system Wistar rats. Briefly: Open field exploratory behaviour. To be noted: rat. The data set is classed as in vivo. How it is done: During the rat passive avoidance testing, open field exploratory behavior was measured on study days 4 and 5 (acclimatisation and handling), 6 (training) and 7 (recall). The open field apparatus consisted of black-painted Perspex 620 mm^2 with walls 300 mm high. Locomotor activity, measured as the distance traveled in a 300 s period, as well as incidences of rearing and grooming were recorded, using Ethovision XT tracking software (Noldus UK).

Data set [6] relates to aged beagle dogs. Briefly: Delayed non-matching to position (DNMP) in aged beagle dogs. It counts as in vivo, dog. The note with it: aged beagles. How it is done:
Animals were acclimatised in the testing facility for at least 3 months. During baseline days (days −12 to −8), 50 dogs underwent DNMP testing once daily using delays of 20 and 90 s equally dispersed over 12 trials per session.
These 40 subjects were tested on the DNMP using delays of 5, 55 and 105 s equally dispersed over 18 trials per session over five once-daily sessions (days −6 to −2). Therefore, baseline testing was conducted for a total of 10 days.
These dogs were then allocated into 5 groups, balanced for mean baseline performance accuracy at the longest delays (n = 8 per group). […] Daily treatment administration began on day 0, and dogs were tested once daily on the DNMP at the same delays employed at baseline for a minimum of 10 days. Each test consisted of two phases; in phase one, the dog is presented with an object over one of the three food wells. After the dog moves the object and obtains the food reward beneath, the tray is removed from the dog’s sight and the delay is initiated. The second phase occurs after the delay and consists of presenting the dog with two identical objects to that used in the first phase. One is in the same position as the first phase and the other covers a food reward in one of the two remaining food wells.

Data set [7] can be described thus: First-time-in-human single ascending dose safety. It counts as in vivo. To be noted: plasma, oral, 175 mg; human SAD; read-out: Cmax at which cholinergic side effects were recorded. The source says:
(§1) HTL9936 was progressed into a randomized, double blind, placebo controlled, first time-in-human (FTIH) ascending single and multiple oral dose study in healthy young adult male volunteers and healthy elderly male and female volunteers. (ClinicalTrials.gov Identifier: NCT02291783).
(§2) The required amount of sterile solution was subsequently injected into the infusion bag containing sodium chloride 0.9%w/v infusion fluid to provide the required dose for IV administration.

The test system of data set [8] is healthy volunteers. Briefly: First-time-in-human single ascending dose safety. The data set is classed as in vivo.
Description: as §1, §2

Data set [9] relates to healthy elderly subjects. The data set is described as follows: Clinical fMRI Arena task in healthy elderly subjects. The data set is classed as in vivo, human. Also on record: Activation across a-priori regions during encoding and retrieval / Left hippocampus activation effect: dose or concentration left out as unconfirmed. The source says:
All functional MRI images were acquired on a 3T scanner using gradient echo-echo planar imaging (GRE-EPI: TR: […]; TE: 30 ms; 90-degree flip angle; slices: 53; voxel size 3.75x 3.75 mm) and an 8-channel head coil. All data processing was done using Statistical Parameteric Mapping (SPM) version 5 software. All functional images were co-registered to subjects own T1 weighted structural image for anatomical localization, realigned using a least-squares approach and a 6 parameter (rigid body) spatial translation, normalized to Montreal neurological institute (MNI) using a high dimensional, non-linear transformation and smoothed using 3D 7 mm Gaussian filter. A high pass filter was applied to remove low temporal frequency drift. Bilateral hippocampal and caudate masks based on previous publications using the Arena task were used for analysis ([Antonova et al., 2009], [2011]). The masks consisted of spheres of radius 6mm centered on co-ordinates from these papers.
A block design was used to assess functional activation during encoding, retrieval, and rest (control) conditions of the Arena task. Beta-estimates of functional response during each condition were created by modeling signal changes convolved with a double gamma hemodynamic response function with peak responses at 4 and 8 s following stimulus onset for each individual. In the first level analysis, difference in beta estimates for encoding versus rest, and retrieval versus rest were derived. […] Functional responses in the a-priori ROIs were extracted using hippocampal, ventral striatum, and caudate masks derived from subject own T1 weighted image. To test for drug effects in these pre-specified regions an ANOVA including fixed-effect terms representing treatment group, study site as a between subject factor, and baseline MMSE score as covariate was used.

T2 sequence (P08482 whole entry): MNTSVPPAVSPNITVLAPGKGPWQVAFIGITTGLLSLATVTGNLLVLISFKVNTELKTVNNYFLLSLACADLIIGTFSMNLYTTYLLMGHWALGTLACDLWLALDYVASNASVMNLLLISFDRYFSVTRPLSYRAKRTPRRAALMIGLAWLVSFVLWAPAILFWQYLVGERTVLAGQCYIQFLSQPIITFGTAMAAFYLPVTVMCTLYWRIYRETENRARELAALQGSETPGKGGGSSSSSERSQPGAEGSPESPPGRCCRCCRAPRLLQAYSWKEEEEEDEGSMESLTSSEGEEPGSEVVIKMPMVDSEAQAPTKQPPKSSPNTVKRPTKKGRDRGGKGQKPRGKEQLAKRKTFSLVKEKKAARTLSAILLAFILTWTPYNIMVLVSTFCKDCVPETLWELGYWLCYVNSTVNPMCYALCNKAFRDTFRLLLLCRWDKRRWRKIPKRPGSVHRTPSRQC
T3 sequence (P20309 whole entry): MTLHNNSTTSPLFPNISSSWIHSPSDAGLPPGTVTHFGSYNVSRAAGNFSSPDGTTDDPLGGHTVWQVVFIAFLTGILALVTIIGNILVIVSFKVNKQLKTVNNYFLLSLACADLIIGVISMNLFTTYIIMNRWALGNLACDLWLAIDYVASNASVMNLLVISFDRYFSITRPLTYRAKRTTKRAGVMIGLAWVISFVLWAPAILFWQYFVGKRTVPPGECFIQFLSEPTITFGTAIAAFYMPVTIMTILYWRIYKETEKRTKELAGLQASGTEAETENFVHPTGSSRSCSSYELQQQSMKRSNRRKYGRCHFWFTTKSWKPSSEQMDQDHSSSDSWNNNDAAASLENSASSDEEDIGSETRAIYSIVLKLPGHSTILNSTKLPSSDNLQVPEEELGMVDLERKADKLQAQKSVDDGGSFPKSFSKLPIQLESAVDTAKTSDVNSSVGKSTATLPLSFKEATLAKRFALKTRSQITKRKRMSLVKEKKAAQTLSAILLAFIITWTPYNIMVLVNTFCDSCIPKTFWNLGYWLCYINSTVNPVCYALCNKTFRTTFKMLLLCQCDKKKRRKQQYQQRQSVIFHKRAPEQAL

The term EC50 denotes the concentration at which the effect is half-maximal. On to `CCOC(=O)N1CCC[C@H](N2CCC(C(=O)NC3(C)CCC3)CC2)CC1` [HTL9936, ethyl (S)-4-(4-((1-methylcyclobutyl)carbamoyl)piperidin-1-yl)azepane-1-carboxylate], for which the results for the EC50 in data set [1] and in data set [2] were 79 nM and 631 nM, respectively. The “Agonist behaviour at the rat receptor” value in data set [3] is “partial agonist”. For the same molecule, the “Binding to the M3-receptor” value in [4] is recorded as “no detectable binding”. Besides, the Open-field exploratory behavior entry in data set [5] is recorded as “no difference in effect”. The “Visual-spatial memory (DNMP performance)” value in [6] (0.3 mg/kg and 1 mg/kg s.c.) was “Significant improvements in visual-spatial memory”. Moreover, the “Effect compared with donepezil” value in [6] (1 mg/kg s.c.) was “equivalent to that of donepezil”. The Cmax in data set [7] stood at 242 ng/mL. The “Subjects with mild cholinergic responses (salivation, sweating, blood pressure/heart rate changes)” value in data set [8] (human SAD, 175 mg cohort) is 3/5. In addition, in data set [8] (human SAD, 1−100mg oral), the “Serious adverse events leading to withdrawal” value is “no serious adverse events”. Moreover, the “Margin of 242 ng/mL over plasma minimal effective concentration in aged beagle DNMP” value in data set [8] (human vs dog 58 ng/mL) is given as “about 5 ×”. The “Estimated unbound brain exposure at plasma Cmax of 242 ng/mL” value in data set [8] (human, from CSF to plasma ratios 1 to 3 h) is reported as 72 to 259 nM. For the same molecule, the “Activation across a-priori regions during encoding and retrieval” value in data set [9] (10.1 dose (so in the source)) is “increased bilateral activation”. Further, the “Left hippocampus activation effect” value in data set [9] (40.3 dose (so in the source)) is listed as “smaller effect”. Moreover, the Arena task performance entry in data set [9] (healthy elderly, i.v. infusion) was “did not significantly improve task performance”. For the same molecule, the “fMRI activation during encoding of spatial cues” value in [9] (healthy elderly, i.v. infusion) was “significant drug by activation interaction effect in the left hippocampus”. In addition, the “Predicted steady-state plasma concentration” value in [9] (human, high dose 40.3 mg i.v.) is 100 ng/mL; in data set [9] (human, low dose 10.1 mg i.v.), 25 ng/mL. Besides, the “Predicted exposure as multiple of human M1-receptor in vitro potency” value in [9] (human, low and high doses) is recorded as 0.2- to 3.4 fold.

The record behind these values is article PMC7616177, “From structure to clinic: Design of a muscarinic M1 receptor agonist with the potential to treat Alzheimer’s disease” (Cell, 2021).
